The text below walks through data of article PMC8446442, “Crystal Structure of Mycobacterium tuberculosis Elongation Factor G1” (Frontiers in Molecular Biosciences, 2021).

Assay [1] has as its target T1, Mtb EF-G1 (Elongation factor G1) (Mycobacterium tuberculosis, UniProt P9WNM7). The experiment in a line: SPR (Biacore T200), […] steady-state affinity fit. The class given is binding. Also on record: gene fusA; recombinant Mtb EF-G1 with a C-terminal His tag, immobilized on CM5 chip. On the technique in general: SPR reads the build-up and loss of mass on a sensor chip optically.

Assay [2] addresses T1, Mtb EF-G1 (Elongation factor G1). The experiment in a line: ITC at […] °C; crystal structure of the complex ([…] Å, SeMet SAD). Also on record: gene fusA; recombinant Mtb EF-G1 with a C-terminal His tag. Format: binding.

T1 sequence (P9WNM7 whole entry): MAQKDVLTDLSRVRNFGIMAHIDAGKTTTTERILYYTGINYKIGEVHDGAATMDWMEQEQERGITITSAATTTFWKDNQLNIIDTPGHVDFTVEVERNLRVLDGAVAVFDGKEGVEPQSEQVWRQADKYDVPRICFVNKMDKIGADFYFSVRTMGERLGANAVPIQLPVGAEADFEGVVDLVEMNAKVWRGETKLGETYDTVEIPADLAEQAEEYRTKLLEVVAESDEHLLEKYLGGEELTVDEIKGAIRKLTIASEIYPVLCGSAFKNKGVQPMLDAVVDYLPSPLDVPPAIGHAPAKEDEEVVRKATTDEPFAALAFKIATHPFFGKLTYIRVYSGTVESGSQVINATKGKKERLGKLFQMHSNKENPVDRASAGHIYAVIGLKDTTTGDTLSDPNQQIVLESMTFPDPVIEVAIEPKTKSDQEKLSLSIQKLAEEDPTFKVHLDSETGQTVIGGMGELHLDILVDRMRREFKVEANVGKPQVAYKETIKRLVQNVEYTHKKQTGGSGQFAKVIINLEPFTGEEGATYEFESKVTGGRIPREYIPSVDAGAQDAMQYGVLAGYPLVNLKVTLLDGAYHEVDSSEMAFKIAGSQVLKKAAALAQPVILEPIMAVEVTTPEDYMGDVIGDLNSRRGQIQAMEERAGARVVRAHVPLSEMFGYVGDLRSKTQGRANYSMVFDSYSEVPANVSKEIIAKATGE

On to `CC(=O)O[C@H]1C[C@@]2(C)[C@@H](C[C@@H](O)[C@H]3[C@@]4(C)CC[C@@H](O)[C@@H](C)[C@@H]4CC[C@@]32C)/C1=C(\CCC=C(C)C)C(=O)O` [FA, Fusidic acid], for which the Kd – broadly, a measure of binding affinity in units of concentration – in assay [1] was 3.54 µM.

Turning to `Nc1nc2c(ncn2[C@@H]2O[C@H](COP(=O)(O)OP(=O)(O)O)[C@@H](O)[C@H]2O)c(=O)[nH]1` [GDP], in assay [2], the Kd was determined as 11.5 ± 0.3 µM.
